We go through two compounds from patent US20220087247A1, “MOUSE REPELLENTS, DEVICES, AND METHODS OF USING SUCH” (priority 2020, published 2022).

The subject of assay [1] is mosquitoes, beetles, and termites. To be noted: known from prior knowledge; cited from earlier work.
Assay [2] relates to female house mice, Mus musculus (strain: CD-1). Nature of the assay: Two-choice T-tube olfactometer bioassay: deterrence from approaching and feeding on a food bait. As to conditions: Experiments 1 to 12; single test stimulus 100 μl or 100 mg on cotton ball next to food bait vs unscented chamber. Type of assay: in vivo. An excerpt: Female house mice, Mus musculus (strain: CD-1®), were obtained from Charles River Laboratories Ltd (Saint-Constant, QC J5A 2E7, Canada) and cared for by Animal Care Services of Simon Fraser University (“SFU”). On arrival, mice were assigned to four groups of five female mice each. Each group was accommodated in cages (50 cm×40 cm×20 cm) lined with commercial corn cob bedding (Anderson's Bed o'cobs, The Andersons Inc. Maumee, Ohio 43537, USA), provided with Nalgene toys, running wheels (Jamieson's Pet Food Distributors, Ltd, Delta, BC V4G 1C9, Canada), and provisioned with commercial rodent food (LabDiet® Certified Rodent Diet, LabDiet®, St Louis, Mo. 63144, USA) as well as water ad libitum. Cages were maintained at a temperature of 21° C. and a relative humidity of 50%. A reverse photoperiod (12 hours light; 12 hours dark) was maintained to facilitate behavioral bioassays during normal working hours. […]
FIG. 3 depicts data obtained by additional testing of those plant essential oils found most promising in pre-screening experiments (Experiments 2, 5, 8, 9, and 11), running a total of 8 replicates for each of experiments 2, 5, 8, 9 and 11. First-choice, first-fed, and time-spent data were analyzed using g-tests and Student's t-tests, respectively, for these experiments. […]

`C=CCc1ccc(O)c(OC)c1` [Eugenol]: in assay [1], the repellency to insects result was “repellent”. Consider `CC1CCC(C(C)C)C(O)C1` (centres unmarked) [menthol, Menthol], for which the “first fed (scented chamber fed in first by mice)” value in assay [2] is “never fed in first”.
